Experimental data reported in patent US6326476A, “Heparin derivatives and process for the preparation thereof” (Pharmacia AB, priority 1991, dated 2001).

Test system: Sprague-Dawley rats
Details: rat, in vivo, 2 mg/kg
Procedure: Res 15 191-197 was performed in Sprague-Dawley rats weighing 200-250 g anaesthetized with Mebumal/Stesolid (Dumex A/S Copenhagen). The template device (Simplate, General Diagnostics, Durham, N.C.) was applied longitudinally to the dorsal part of the tail, taking care to avoid large veins. Blood from the wound was then carefully removed every 30 sec, with blotting paper. A minimum of six rats were used for each compound and dose. Bleeding times were measured from the moment the tail was incised until the first arrest of bleeding. The bleeding time was recorded with an accuracy of 30 sec. Two bleeding times were always determined in each rat, viz. 10 min before and 10 min after drug administration, and the results are expressed as the prolongation of bleeding time.

Prolongation of bleeding time: 12.8 min
Substance: heparin [Standard heparin]
